Activity calls are given as the source filed them. The calls are words filed in the database; no cut-off is given here.
How the values were obtained:
[1] = system: Rattus norvegicus; experiment: Antihypertensive activity in spontaneously hypertensive rat assessed as reduction in mean arterial blood pressure at 100 mg/kg, po administered as two dose at 24 hrs interval measured 4 hrs post second dose relative to control; assay type: functional, Artery; design: scale not given: the % may be the effect or the level left
[2] = system: Canis familiaris; experiment: Antihypertensive activity in normotensive dog assessed as reduction in mean arterial blood pressure at 5 to 10 mg/kg, po administered in gelatin capsules; assay type: functional, organism-based; conditions: Canis lupus familiaris, Artery
[3] = system: Canis familiaris; experiment: Toxicity in dog assessed ataxia at 10 mg/kg, po administered in gelatin capsules; assay type: organism-based, Canis lupus familiaris; design: dose 10 mg/kg, route oral; conditions: in vivo
[4] = system: Rattus norvegicus; experiment: Antihypertensive activity in spontaneously hypertensive rat assessed as reduction in mean arterial blood pressure at 10 mg/kg, po administered as two dose at 24 hrs interval measured 4 hrs post second dose relative to control; assay type: functional, Artery; design: scale not given: the % may be the effect or the level left
[5] = system: Rattus norvegicus; experiment: Antihypertensive activity in spontaneously hypertensive rat assessed as reduction in mean arterial blood pressure at 5 mg/kg, po administered as two dose at 24 hrs interval measured 4 hrs post second dose relative to control; assay type: functional, Artery; design: scale not given: the % may be the effect or the level left
[6] = system: Rattus norvegicus; experiment: Toxicity in spontaneously hypertensive rat assessed as adverse effect at 5 to 10 mg/kg, po administered as two dose at 24 hrs interval; assay type: organism-based; design: dose 5-10 mg/kg, route oral; conditions: in vivo
[7] = system: Rattus norvegicus; experiment: Toxicity in spontaneously hypertensive rat assessed as general depression of cardiovascular function at 100 mg/kg, po administered as two dose at 24 hrs interval; assay type: organism-based, Heart; design: dose 100 mg/kg, route oral; conditions: in vivo
[8] = system: Rattus norvegicus; experiment: Antihypertensive activity in spontaneously hypertensive rat assessed as reduction in mean arterial blood pressure at 25 mg/kg, po administered as two dose at 24 hrs interval measured 4 hrs post second dose relative to control; assay type: functional, Artery; design: scale not given: the % may be the effect or the level left

## O=C(N/N=C/c1c(Cl)cccc1Cl)N1CCOCC1
[1]
  Activity: 13%

## CN(C)C(=O)N/N=C/c1ccc(Cl)cc1
[1]
  Activity: 16%

## CN(C)C(=O)N/N=C/c1c(Cl)cccc1Cl
[2]
  Activity: inactive
[3]
  Activity: Toxic
[4]
  Activity: 46%
[5]
  Activity: 31%
[6]
  Activity: Non-toxic
[7]
  Activity: Toxic

## N=C(N)N/N=C/c1c(Cl)cccc1Cl [GUANABENZ]
[8]
  Activity: 26%

## CNC(=O)N/N=C/c1c(Cl)cccc1Cl
[1]
  Activity: 32%

— ChEMBL document CHEMBL3272353, “4-Substituted semicarbazones of mono- and dichlorobenzaldehydes as antihypertensive agents” (J Med Chem, 1977)
